Measured values: patent publication US8778923B2, “GLP-1 receptor modulators” (Receptos, Inc., priority 2011, dated 2014)
pEC50: −log10 of the molar value.

Each compound was assayed against T1, GLP-1R (Homo sapiens, UniProt P43220) (assay: EC20 GLP-1(9-36) PAM cAMP assay: dose response of compound in the presence of fixed concentration of GLP-1(9-36)). Settings: GLP-1R CRE-bla CHO-K1 cells, compound dose response in presence of fixed concentration of GLP-1(9-36).
T1 construct: host or cells: CRE-bla CHO-K1
T1 sequence (P43220 24-463): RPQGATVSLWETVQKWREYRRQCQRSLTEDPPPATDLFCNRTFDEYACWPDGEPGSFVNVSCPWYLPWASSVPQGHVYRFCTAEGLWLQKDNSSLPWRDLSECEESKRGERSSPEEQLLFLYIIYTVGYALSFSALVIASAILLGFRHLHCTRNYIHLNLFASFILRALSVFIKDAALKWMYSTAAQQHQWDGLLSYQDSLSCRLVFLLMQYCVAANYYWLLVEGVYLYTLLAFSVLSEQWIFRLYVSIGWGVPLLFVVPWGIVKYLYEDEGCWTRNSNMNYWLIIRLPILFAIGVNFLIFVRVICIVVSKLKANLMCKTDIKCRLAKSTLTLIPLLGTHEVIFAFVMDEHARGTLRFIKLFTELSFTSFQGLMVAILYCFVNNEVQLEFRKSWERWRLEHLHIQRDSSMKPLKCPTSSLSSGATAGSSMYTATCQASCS
T1 sequence (P01275 100-127 partner limits assumed): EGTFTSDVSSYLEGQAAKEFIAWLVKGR
Type: cell-based
Procedure: EC20 GLP-1(9-36) PAM cAMP Assay: Dose Response of Compound in the Presence of Fixed Concentration of GLP-1 (9-36).
GLP-1R CRE-bla CHO-K1 cells cultured in growth medium (DMEM-High glucose, 10% dialyzed FBS, 0.1 mM NEAA, 25 mM Hepes, 100 U/mL penicillin/100 μg/mL streptomycin, 5 μg/mL Blasticidin, 600 μg/mL Hygromycin) were tryspsinized and plated in suspension into 384 well white flat bottom plates at 5000 cells/well in 12 μL assay buffer (Hanks Balanced Salt solution, 10 mM Hepes, 0.1% BSA, pH 7.4). A 5× compound dose response curve (12-point) was generated in assay buffer containing 1.5 mM IBMX, 12.5% DMSO. GLP-1(9-36) was diluted to 4.2 μM in assay buffer containing 1.5 mM IBMX and 12.5% DMSO. The 5× compound dose response was added (3 μL), followed by 0.5 μL of GLP-1(9-36) and cells were incubated for 30 min at 37° C. Direct detection of cAMP was carried out using DiscoveRx HitHunter cAMP kit according to manufacturer's instructions and luminescence was read using a SpectraMax M5 plate reader. Luminescence was converted to total cAMP using a cAMP standard curve and data was analyzed by non-linear regression to determine the EC50 and Emax.
GLP-1(7-36): […]-NH2. GLP-1(9-36): […]-NH2. GLP-1(7-36) was purchased from GenScript. GLP-1(9-36) was purchased from Biopeptide Co., Inc.

Compound	pEC50
CC(C)(C)c1ccc(C(=O)N[C@@H](Cc2ccc(-c3noc(-c4ccc(N5CCCCC5)cc4)n3)cc2)C(=O)O)cc1 [Compound 5]	5.30 to 5.60
CCCCCCCn1nnnc1-c1cnc(-c2ccc(C[C@H](NC(=O)c3ccc(C(C)(C)C)cc3)C(=O)O)cc2)nc1 [Compound 255]	5.00 to 5.30
CC(C)(C)c1ccc(C(=O)N[C@@H](Cc2ccc(-c3noc(-c4ccc(N5CCCCC5)nc4)n3)cc2)C(=O)O)cc1 [Compound 32]	5.00 to 5.30
CC(C)(C)c1ccc(C(=O)N[C@@H](CCc2ccc(-c3noc(-c4ccc(N5CCCCC5)cc4)n3)cc2)C(=O)O)cc1 [Compound 74]	5.30 to 5.60
CC(C)(C)c1ccc(C(=O)N[C@@H](Cc2ccc(-c3noc(-c4ccc5ccccc5c4)n3)cc2)C(=O)O)cc1 [Compound 60]	5.30 to 5.60
CC(C)c1ccc(-c2nc(-c3ccc(C[C@H](NC(=O)c4ccc(C(C)(C)C)cc4)C(=O)O)cc3)no2)cc1 [Compound 10]	5.30 to 5.60
CC(C)(C)c1ccc(C(=O)N[C@@H](Cc2ccc(-c3ncc(-c4cccc(F)c4)cn3)cc2)C(=O)O)cc1 [Compound 207]	5.30 to 5.60
CC(C)(C)c1ccc(-c2ccc(-c3ccc(C[C@H](NC(=O)c4ccc(C(C)(C)C)s4)C(=O)O)cc3)nn2)cc1 [Compound 280]	5.30 to 5.60
CC(C)(C)c1ccc(C(=O)N[C@@H](Cc2ccc(-c3ncc(-c4cccc(-c5ccccc5)c4)cn3)cc2)C(=O)O)cc1 [Compound 218]	5.30 to 5.60
CCCCCCCOc1ccc(-c2cnc(-c3ccc(C[C@H](NC(=O)c4cc(C)c(CC)s4)C(=O)O)cc3)nc2)cc1 [Compound 145]	5.60 to 6.10
CC(C)(C)c1ccc(C(=O)N[C@@H](Cc2ccc(-c3noc(-c4ccc(-c5ccc(F)cc5)cc4)n3)cc2)C(=O)O)cc1 [Compound 21]	5.30 to 5.60
CCCCCCCOc1ccc(-c2cnc(-c3ccc(C[C@H](NC(=O)c4ccc(N(C)C)cc4)C(=O)O)cc3)nc2)cc1 [Compound 96]	5.30 to 5.60
CC(C)(C)c1ccc(C(=O)N[C@@H](Cc2ccc(-c3ncc(-c4ccc(C(F)(F)F)cc4)cn3)cc2)C(=O)O)s1 [Compound 240]	5.30 to 5.60
CC(C)(C)c1ccc(C(=O)N[C@@H](Cc2ccc(-c3ncc(-c4ccc(C(F)(F)F)cc4)cn3)cc2)C(=O)O)cc1 [Compound 209]	5.60 to 6.10
COc1cc(OC)cc(-c2nc(-c3ccc(C[C@H](NC(=O)c4ccc(C(C)(C)C)cc4)C(=O)O)cc3)no2)c1 [Compound 38]	5.60 to 6.10
CCCCCCCOc1ccc(-c2cnc(-c3ccc(C[C@H](NC(=O)c4c(Cl)ccc(F)c4Cl)C(=O)O)cc3)nc2)cc1 [Compound 116]	5.60 to 6.10
CCCCCCCOc1ccc(-c2cnc(-c3ccc(C[C@H](NC(=O)c4ccc(C(C)C)cc4)C(=O)O)cc3)nc2)cc1 [Compound 94, (S)-3-(4-(5-(4-(heptyloxy)phenyl)pyrimidin-2-yl)phenyl)-2-(4-isopropylbenzamido)propanoic acid]	5.60 to 6.10
CCCCCCCOc1ccc(-c2cnc(-c3ccc(C[C@H](NC(=O)c4ccc(C(C)(C)C)cc4)C(=O)NCC(=O)O)cc3)nn2)cc1 [Compound 276]	5.60 to 6.10
CC(C)(C)c1ccc(-c2cnc(-c3ccc(C[C@H](NC(=O)c4ccc(C(C)(C)C)s4)C(=O)NC(CN4CCCC4)C(=O)O)cc3)nc2)cc1 (stereo partly drawn) [Compound 365]	5.30 to 5.60
CC(C)(C)c1ccc(C(=O)N[C@@H](Cc2ccc(-c3noc(-c4ccc(OCc5ccccc5)cc4)n3)cc2)C(=O)O)cc1 [Compound 36]	5.30 to 5.60
Cc1cccc(-c2ccc(-c3nc(-c4ccc(C[C@H](NC(=O)c5ccc(C(C)(C)C)cc5)C(=O)O)cc4)no3)cc2)c1 [Compound 13]	5.60 to 6.10
CN(C)c1cccc(-c2nc(-c3ccc(C[C@H](NC(=O)c4ccc(C(C)(C)C)cc4)C(=O)O)cc3)no2)c1 [Compound 53]	5.30 to 5.60

Continued, values first:

pEC50	Compound
> 6.10	CCCCCCCOc1ccc(-c2cnc(-c3ccc(C[C@H](NC(=O)c4ccc(C(C)(C)C)s4)C(=O)N[C@@H](CCC(N)=O)C(=O)O)cc3)nc2)cc1 [Compound 320, ((S)-2-(5-(tert-butyl)thiophene-2-carboxamido)-3-(4-(5-(4-(heptyloxy)phenyl)pyrimidin-2-yl)phenyl)propanoyl)-L-glutamine]
5.60 to 6.10	CCCCCCCOc1ccc(-c2cnc(-c3ccc(C[C@H](NC(=O)c4ccc(C(C)(C)C)cc4)C(=O)NCC(=O)NS(C)(=O)=O)cc3)nc2)cc1 [Compound 381, (S)-4-(tert-butyl)-N-(3-(4-(5-(4-(heptyloxy)phenyl)pyrimidin-2-yl)phenyl)-1-((2-(methylsulfonamido)-2-oxoethyl)amino)-1-oxopropan-2-yl)benzamide]
5.60 to 6.10	CCCCCCOc1ccc(-c2cnc(-c3ccc(C[C@H](NC(=O)c4ccc(C(C)(C)C)s4)C(=O)NCC4(C(=O)O)CCC4)cc3)nc2)cc1 [Compound 342]
5.60 to 6.10	CC(C)Cc1ccc(-c2cnc(-c3ccc(C[C@H](NC(=O)c4ccc(C(C)(C)C)s4)C(=O)O)cc3)nc2)cc1 [Compound 243]
5.60 to 6.10	CC(C)(C)c1ccc(C(=O)N[C@@H](Cc2ccc(-c3noc(-c4ccc(-c5ccccc5Cl)cc4)n3)cc2)C(=O)O)cc1 [Compound 18]
5.60 to 6.10	CCCCCCCOc1ccc(-c2cnc(-c3ccc(C[C@H](NC(=O)c4ccc(CN(C)C)cc4)C(=O)O)cc3)nc2)cc1 [Compound 134]
> 6.10	CCCCCCCOc1ccc(-c2cnc(-c3ccc(C[C@@H](NC(=O)c4ccc(C(C)(C)C)s4)C(=O)N[C@@H](CCC(N)=O)C(=O)O)cc3)nc2)cc1 [Compound 377]
5.60 to 6.10	CCCCCCCOc1ccc(-c2cnc(-c3ccc(C[C@@H](NC(=O)c4ccc(C(C)(C)C)s4)C(=O)O)cc3)nc2)cc1 [Compound 193]
5.60 to 6.10	CCCCCCCOc1ccc(-c2cnc(-c3ccc(C[C@H](NC(=O)c4cnc(C(C)C)s4)C(=O)O)cc3)nc2)cc1 [Compound 148]
5.60 to 6.10	CCCCCCCOc1ccc(-c2cnc(-c3ccc(C[C@H](NC(=O)c4ccc(C(C)C)cc4)C(=O)N[C@@H](C)C(=O)O)cc3)nc2)cc1 [Compound 305]
5.60 to 6.10	CCCCCCCOc1ccc(-c2cnc(-c3ccc(C[C@H](NC(=O)c4ccc(C(C)(C)C)cc4)C(=O)NCCCC(=O)O)cc3)nc2)cc1 [Compound 301]
> 6.10	CCCCCCCOc1ccc(-c2cnc(-c3ccc(C[C@H](NC(=O)c4ccc(C(C)(C)C)s4)C(=O)O)cc3)cn2)cc1 [Compound 281]
> 6.10	CCCCCCCOc1ccc(-c2cnc(-c3ccc(C[C@H](NC(=O)c4cnn(C(C)(C)C)c4)C(=O)O)cc3)nc2)cc1 [Compound 143]
5.60 to 6.10	CCCCCCCOc1ccc(-c2cnc(-c3ccc(C[C@H](NC(=O)c4cccc(N5CCCC5)c4)C(=O)O)cc3)nc2)cc1 [Compound 92]
5.60 to 6.10	CCCCCCCOc1ccc(-c2cnc(-c3ccc(C[C@H](NC(=O)c4ccc(C)cc4)C(=O)O)cc3)nc2)cc1 [Compound 110]
> 6.10	CCCCCCCOc1ccc(-c2cnc(-c3ccc(C[C@H](NC(=O)c4ccc(C(C)(C)C)s4)C(=O)N[C@@H](C)C(=O)O)cc3)nc2)cc1 [Compound 333]
> 6.10	CCCCCCCOc1ccc(-c2cnc(-c3ccc(C[C@H](NC(=O)c4ccc(C(C)=O)s4)C(=O)O)cc3)nc2)cc1 [Compound 154]
5.60 to 6.10	CC(C)(C)c1ccc(-c2cnc(-c3ccc(C[C@@H](NC(=O)c4ccc(C(C)(C)C)s4)C(=O)NCC(=O)O)cc3)nc2)cc1 [Compound 373]
5.60 to 6.10	CCCCCCCOc1ccc(-c2cnc(-c3ccc(C[C@H](NC(=O)c4ccc(C(C)(C)C)cc4)C(=O)NCC(=O)Nc4nn[nH]n4)cc3)nc2)cc1 [Compound 303]
5.60 to 6.10	CCCCCCCOc1ccc(-c2cnc(-c3ccc(C[C@H](NS(=O)(=O)c4ccc(OC(C)C)cc4)C(=O)O)cc3)nc2)cc1 [Compound 189]
5.60 to 6.10	CC(C)(C)c1ccc(-c2cnc(-c3ccc(C[C@H](NC(=O)c4ccc(C(C)(C)C)s4)C(=O)N[C@@H](CC(=O)O)C(=O)O)cc3)nc2)cc1 [Compound 361]
> 6.10	CCCCCCCOc1ccc(-c2cnc(-c3ccc(C[C@H](NC(=O)c4ccc(C(C)(C)C)cc4)C(=O)NCC(=O)O)cc3)nc2)cc1 [Compound 297, (S)-(2-(4-(tert-butyl)benzamido)-3-(4-(5-(4-(heptyloxy)phenyl)pyrimidin-2-yl)phenyl)propanoyl)glycine]
> 6.10	CCCCCCCOc1ccc(-c2cnc(-c3ccc(C[C@H](NC(=O)c4ccc(C(C)(C)C)s4)C(=O)O)cc3)nc2)cc1 [Compound 192, (S)-2-(5-(tert-butyl)thiophene-2-carboxamido)-3-(4-(5-(4-(heptyloxy)phenyl)-pyrimidin-2-yl)phenyl)propanoic acid]
> 6.10	CCCCCCCOc1ccc(-c2cnc(-c3ccc(C[C@H](NC(=O)c4ccc(C(C)(C)C)s4)C(=O)N[C@H](CCC(N)=O)C(=O)O)cc3)nc2)cc1 [Compound 341]
> 6.10	CCCCCCCOc1ccc(-c2cnc(-c3ccc(C[C@H](NC(=O)c4ccc(C(C)(C)C)s4)C(=O)N[C@H](C)C(=O)O)cc3)nc2)cc1 [Compound 327]
> 6.10	CC(C)(C)c1ccc(-c2cnc(-c3ccc(C[C@H](NC(=O)c4ccc(C(C)(C)C)s4)C(=O)N[C@@H](CO)C(=O)O)cc3)nc2)cc1 [Compound 352]
